Experimental data: ChEMBL document CHEMBL5465560, “Selectivity Literature for EUbOPEN Chemogenomic Library” (2024)
Each block holds one compound with its values, some of them ahead of it.

What was measured:
[1] = target: Serine/threonine-protein kinase PAK 1 (Homo sapiens) (UniProt Q13153); assay: Selectivity interaction (Kinase panel (DSF assay)) EUB0001559a PAK1
[2] = target: Ribosomal protein S6 kinase alpha-1 (Homo sapiens, UniProt Q15418); assay: Selectivity interaction (SelectScreen profiling (Invitrogen)) EUB0000607a RPS6KA1; details: at 2 µM
[3] = target: Death-associated protein kinase 1 (Homo sapiens, UniProt P53355); assay: Selectivity interaction (Kinase panel (DSF assay)) EUB0001558a DAPK1
[4] = target: T1, Serine/threonine-protein kinase D2 (Homo sapiens) (UniProt Q9BZL6); assay: Selectivity interaction (KinomeScan (DiscoverX)) EUB0000045b PRKD2
T1 sequence (whole entry): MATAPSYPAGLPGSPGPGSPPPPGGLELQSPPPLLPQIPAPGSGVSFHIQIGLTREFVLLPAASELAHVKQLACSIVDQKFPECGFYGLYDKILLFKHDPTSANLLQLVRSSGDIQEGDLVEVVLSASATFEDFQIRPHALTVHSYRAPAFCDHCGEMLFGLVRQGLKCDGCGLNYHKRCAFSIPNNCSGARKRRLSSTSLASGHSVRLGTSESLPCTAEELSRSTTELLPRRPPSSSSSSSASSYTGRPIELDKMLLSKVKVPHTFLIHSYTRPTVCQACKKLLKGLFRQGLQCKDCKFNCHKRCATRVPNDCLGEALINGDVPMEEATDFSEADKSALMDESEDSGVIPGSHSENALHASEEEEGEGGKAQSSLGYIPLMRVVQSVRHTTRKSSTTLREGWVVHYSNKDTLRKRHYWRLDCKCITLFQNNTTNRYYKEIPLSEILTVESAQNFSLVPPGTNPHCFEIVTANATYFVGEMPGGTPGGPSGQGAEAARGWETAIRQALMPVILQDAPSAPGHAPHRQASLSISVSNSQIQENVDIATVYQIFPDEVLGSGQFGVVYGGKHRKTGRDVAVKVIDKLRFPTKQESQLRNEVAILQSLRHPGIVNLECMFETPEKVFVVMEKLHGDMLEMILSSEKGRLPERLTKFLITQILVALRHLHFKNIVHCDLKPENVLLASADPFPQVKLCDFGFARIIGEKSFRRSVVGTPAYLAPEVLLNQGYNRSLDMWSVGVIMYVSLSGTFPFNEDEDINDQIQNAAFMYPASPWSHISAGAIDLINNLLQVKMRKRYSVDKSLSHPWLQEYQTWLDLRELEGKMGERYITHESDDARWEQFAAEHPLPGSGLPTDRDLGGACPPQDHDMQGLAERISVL

[5] = target: Serine/threonine-protein kinase NIM1 (Homo sapiens, UniProt Q8IY84)
[6] = target: T2, Serine/threonine-protein kinase D3 (Homo sapiens) (UniProt O94806); assay: Selectivity interaction (KinomeScan (DiscoverX)) EUB0000229b PRKD3; details: at 10 µM
T2 sequence (whole entry): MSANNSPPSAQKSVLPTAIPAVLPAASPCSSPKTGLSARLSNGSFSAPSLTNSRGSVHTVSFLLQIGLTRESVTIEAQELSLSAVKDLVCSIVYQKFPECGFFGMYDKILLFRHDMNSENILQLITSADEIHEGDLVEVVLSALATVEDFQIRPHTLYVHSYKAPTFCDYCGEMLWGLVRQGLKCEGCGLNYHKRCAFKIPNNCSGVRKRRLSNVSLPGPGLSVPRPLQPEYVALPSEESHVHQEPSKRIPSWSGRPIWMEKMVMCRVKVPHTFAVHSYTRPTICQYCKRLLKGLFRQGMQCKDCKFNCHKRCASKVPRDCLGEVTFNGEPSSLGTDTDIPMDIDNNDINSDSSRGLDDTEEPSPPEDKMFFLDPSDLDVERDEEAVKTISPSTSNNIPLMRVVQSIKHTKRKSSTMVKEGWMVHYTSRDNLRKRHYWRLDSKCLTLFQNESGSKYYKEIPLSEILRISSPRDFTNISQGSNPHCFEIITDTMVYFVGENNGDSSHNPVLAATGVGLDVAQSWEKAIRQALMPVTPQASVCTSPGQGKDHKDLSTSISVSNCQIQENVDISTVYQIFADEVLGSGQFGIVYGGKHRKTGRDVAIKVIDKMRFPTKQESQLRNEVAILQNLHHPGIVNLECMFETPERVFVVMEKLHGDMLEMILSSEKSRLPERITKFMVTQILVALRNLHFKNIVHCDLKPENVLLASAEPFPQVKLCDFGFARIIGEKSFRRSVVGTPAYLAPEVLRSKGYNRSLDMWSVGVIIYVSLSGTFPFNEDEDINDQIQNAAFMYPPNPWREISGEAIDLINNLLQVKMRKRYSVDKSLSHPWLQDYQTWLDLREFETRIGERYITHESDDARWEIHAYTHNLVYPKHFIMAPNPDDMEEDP

hERG (KCNH2) = hERG (KCNH2) (Homo sapiens, UniProt Q12809); assay: Selectivity interaction (Safety Panel 44tm (Eurofins)) EUB0000162b KCNH2; details: at 10 µM, read-out: % of control
[7] = target: T3, Rhodopsin kinase GRK7 (Homo sapiens) (UniProt Q8WTQ7); assay: Selectivity interaction (KinomeScan (DiscoverX)) EUB0001049a GRK7; details: at 1 µM
T3 sequence (whole entry): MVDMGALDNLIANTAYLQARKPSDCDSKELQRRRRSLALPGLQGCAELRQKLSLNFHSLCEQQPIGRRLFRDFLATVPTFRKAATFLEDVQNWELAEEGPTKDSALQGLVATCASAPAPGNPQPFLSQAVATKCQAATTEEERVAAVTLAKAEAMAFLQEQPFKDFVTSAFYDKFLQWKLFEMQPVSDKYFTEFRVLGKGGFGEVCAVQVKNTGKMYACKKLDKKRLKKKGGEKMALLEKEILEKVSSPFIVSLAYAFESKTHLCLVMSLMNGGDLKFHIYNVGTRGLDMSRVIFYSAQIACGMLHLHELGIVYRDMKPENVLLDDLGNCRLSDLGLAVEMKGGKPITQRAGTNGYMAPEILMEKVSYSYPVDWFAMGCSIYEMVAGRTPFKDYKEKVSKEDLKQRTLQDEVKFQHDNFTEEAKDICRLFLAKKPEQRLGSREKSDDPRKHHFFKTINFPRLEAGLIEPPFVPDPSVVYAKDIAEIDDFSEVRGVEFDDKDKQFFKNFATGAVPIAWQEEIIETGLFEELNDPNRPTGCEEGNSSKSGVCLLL

[8] = target: T1, Serine/threonine-protein kinase D2 (Homo sapiens); assay: Selectivity interaction (KinomeScan (DiscoverX)) EUB0000666a PRKD2; details: at 10 µM
[9] = tested on: Angiopoietin-1 receptor (Homo sapiens), Q02763 [Y897S]; assay: (§1) Selectivity interaction (Kinase panel (Z-LYTE Assay)) EUB0001632a TEK; details: at 10 µM
[10] = target: Angiopoietin-1 receptor (Homo sapiens) (UniProt Q02763); assay: as §1; details: at 10 µM
Chain of Angiopoietin-1 receptor (Homo sapiens) (Q02763 whole entry): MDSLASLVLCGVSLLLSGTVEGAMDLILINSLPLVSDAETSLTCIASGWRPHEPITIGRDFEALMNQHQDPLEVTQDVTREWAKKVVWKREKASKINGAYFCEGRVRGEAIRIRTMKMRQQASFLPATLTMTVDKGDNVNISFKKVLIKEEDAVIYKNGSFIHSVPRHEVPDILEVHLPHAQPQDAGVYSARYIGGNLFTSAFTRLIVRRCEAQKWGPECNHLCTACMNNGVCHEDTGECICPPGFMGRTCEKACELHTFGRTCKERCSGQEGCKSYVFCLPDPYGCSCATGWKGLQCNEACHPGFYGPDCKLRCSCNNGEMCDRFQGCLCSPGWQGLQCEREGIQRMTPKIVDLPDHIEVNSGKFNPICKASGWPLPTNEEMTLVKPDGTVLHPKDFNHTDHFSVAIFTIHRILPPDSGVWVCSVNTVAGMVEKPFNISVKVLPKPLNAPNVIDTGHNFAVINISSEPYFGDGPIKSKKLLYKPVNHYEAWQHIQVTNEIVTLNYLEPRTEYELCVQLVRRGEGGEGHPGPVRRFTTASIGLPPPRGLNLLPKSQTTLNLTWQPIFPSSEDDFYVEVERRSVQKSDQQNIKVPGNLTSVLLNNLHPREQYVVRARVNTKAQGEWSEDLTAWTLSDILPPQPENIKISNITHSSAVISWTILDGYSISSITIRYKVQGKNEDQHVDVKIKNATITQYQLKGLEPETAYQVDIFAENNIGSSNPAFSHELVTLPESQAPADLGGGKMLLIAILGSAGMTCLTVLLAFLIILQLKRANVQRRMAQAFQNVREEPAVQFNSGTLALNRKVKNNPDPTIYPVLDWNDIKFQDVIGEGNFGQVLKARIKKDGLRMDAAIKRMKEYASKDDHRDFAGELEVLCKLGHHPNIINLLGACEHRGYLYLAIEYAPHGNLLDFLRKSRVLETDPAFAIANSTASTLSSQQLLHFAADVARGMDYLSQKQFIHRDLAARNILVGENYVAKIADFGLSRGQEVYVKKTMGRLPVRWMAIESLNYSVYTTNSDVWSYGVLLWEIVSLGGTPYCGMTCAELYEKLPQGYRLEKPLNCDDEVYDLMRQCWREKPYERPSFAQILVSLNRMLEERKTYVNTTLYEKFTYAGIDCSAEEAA

Chain of Serine/threonine-protein kinase NIM1 (Q8IY84 whole entry): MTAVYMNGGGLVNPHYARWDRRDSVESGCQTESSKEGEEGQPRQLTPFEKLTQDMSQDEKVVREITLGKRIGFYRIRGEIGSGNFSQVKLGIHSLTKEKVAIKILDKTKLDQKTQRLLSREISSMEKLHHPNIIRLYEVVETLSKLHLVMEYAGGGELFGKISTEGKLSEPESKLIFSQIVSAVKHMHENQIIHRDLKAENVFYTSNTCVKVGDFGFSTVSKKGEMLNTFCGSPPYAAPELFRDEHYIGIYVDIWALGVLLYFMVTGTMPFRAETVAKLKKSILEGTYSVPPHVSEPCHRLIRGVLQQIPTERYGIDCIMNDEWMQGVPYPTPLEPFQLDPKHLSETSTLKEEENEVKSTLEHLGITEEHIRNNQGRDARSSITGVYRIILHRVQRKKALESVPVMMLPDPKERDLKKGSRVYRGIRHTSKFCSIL
Chain of Angiopoietin-1 receptor (Homo sapiens), Q02763 [Y897S] (Q02763 whole entry Y897S): as the sequence (Q02763 whole entry) above, with Y897S counted along it
Chain of hERG (KCNH2) (Q12809 whole entry): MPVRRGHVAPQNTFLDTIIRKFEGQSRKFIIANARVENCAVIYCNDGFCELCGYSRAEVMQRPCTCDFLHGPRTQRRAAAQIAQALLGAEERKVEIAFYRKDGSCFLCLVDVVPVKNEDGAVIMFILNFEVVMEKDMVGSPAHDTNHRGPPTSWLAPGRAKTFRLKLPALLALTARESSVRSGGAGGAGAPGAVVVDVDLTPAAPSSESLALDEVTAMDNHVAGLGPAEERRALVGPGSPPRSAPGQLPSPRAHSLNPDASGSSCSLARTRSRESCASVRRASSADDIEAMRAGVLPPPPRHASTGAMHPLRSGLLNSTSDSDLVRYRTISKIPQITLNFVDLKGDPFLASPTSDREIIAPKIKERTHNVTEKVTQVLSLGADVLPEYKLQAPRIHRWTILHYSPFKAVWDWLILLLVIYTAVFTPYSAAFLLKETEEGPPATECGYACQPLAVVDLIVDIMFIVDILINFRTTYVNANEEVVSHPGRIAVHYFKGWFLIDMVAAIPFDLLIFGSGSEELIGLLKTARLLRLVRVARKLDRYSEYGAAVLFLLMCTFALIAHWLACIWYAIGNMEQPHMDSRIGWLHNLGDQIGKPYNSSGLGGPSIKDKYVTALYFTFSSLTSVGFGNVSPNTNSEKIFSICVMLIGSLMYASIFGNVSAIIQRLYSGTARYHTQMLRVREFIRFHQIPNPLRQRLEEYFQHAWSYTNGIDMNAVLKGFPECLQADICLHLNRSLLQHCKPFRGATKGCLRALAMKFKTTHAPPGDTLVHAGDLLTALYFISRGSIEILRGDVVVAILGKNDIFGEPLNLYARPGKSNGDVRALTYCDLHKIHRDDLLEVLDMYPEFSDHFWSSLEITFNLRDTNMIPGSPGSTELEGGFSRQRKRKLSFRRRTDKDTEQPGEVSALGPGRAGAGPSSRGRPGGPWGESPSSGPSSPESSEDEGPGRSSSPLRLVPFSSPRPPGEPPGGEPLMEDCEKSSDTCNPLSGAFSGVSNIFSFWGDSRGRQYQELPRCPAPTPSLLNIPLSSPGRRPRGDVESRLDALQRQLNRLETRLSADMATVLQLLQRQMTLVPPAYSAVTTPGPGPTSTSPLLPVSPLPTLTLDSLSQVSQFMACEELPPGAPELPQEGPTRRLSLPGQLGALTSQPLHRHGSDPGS
Chain of Serine/threonine-protein kinase PAK 1 (Homo sapiens) (Q13153 whole entry): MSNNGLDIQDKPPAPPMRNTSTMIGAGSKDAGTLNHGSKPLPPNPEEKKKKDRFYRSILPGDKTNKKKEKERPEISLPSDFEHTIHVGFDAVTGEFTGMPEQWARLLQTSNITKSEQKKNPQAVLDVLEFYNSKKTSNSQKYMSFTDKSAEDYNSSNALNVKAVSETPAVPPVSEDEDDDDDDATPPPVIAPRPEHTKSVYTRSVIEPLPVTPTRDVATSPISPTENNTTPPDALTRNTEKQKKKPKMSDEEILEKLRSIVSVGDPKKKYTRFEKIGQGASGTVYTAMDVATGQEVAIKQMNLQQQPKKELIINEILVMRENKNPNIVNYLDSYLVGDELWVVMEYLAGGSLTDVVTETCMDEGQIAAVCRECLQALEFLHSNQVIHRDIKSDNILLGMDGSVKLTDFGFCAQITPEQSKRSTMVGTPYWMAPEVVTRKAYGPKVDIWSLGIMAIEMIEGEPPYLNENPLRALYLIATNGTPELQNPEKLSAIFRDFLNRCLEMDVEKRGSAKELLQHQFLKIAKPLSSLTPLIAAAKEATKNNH
Chain of Ribosomal protein S6 kinase alpha-1 (Q15418 whole entry): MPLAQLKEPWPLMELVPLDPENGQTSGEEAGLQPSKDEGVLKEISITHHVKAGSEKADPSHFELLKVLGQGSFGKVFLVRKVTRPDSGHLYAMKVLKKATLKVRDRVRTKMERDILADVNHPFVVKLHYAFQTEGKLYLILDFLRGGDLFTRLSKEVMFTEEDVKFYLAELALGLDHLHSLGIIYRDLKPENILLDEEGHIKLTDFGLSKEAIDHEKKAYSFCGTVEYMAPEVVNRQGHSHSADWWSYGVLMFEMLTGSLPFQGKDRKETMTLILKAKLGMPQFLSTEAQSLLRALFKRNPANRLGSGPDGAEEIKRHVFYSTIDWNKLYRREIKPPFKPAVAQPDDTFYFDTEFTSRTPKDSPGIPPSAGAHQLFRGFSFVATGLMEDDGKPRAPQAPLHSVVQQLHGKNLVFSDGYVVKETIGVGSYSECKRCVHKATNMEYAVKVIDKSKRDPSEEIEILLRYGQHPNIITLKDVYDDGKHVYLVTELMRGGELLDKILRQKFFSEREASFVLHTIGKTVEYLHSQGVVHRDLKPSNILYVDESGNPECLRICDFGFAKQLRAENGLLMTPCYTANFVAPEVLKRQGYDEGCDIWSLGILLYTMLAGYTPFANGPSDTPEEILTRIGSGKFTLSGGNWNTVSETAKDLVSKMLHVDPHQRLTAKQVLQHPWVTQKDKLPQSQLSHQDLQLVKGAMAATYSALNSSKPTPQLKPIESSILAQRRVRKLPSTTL

dTM [1]: -0.1 K
SMILES: CN(C(=O)c1cnn2cccnc12)c1cc2c(cc1N1CCOCC1)C(=O)N(C[C@@H](F)C(C)(C)O)C2

SMILES: CNC(=O)Nc1ccc(-c2nc(N3CC4CCC(C3)O4)c3cnn(C4CCC5(CC4)OCCO5)c3n2)cc1
% of inhibition [2]: 4%

SMILES: CC(C)(O)[C@H](F)CN1Cc2cc(NC(=O)c3cnn4cccnc34)c(N3CCOCC3)cc2C1=O
dTM [3]: 0.1 K

SMILES: C=CC(=O)Nc1cc(-n2c(=O)ccc3cnc4ccc(-c5ccc(NS(C)(=O)=O)cc5)cc4c32)ccc1C
% of control ([4]; at 1 µM): 87%
% of control ([4]; at 10 µM): 82%

IC50 [5]: > 10 µM
SMILES: CCc1cccc(CC)c1NC(=O)c1nn(C)c2c1CCc1cnc(Nc3ccc(C(=O)NC4CCN(C)CC4)cc3OC(F)(F)F)nc1-2

SMILES: COc1cc(N(C)c2ccnc3ccc(C(F)(F)F)cc23)cc(OC)c1OC
% binding [6]: 58%

SMILES: CN(C)C(=O)Cn1cc(-c2ccc(-c3cncc4ccccc34)cc2)cn1
activity (hERG (KCNH2)): 85%

SMILES: COc1cc(Nc2nc(C)cc(-c3cnn4nc(OC)ccc34)n2)cc(C(F)(F)F)c1
% of control [7]: 83%

SMILES: O=C(NOC[C@H](O)CO)c1ccc(F)c(F)c1Nc1ccc(I)cc1F
% of control [8]: 100%

% of control [9]: 0.243%
% of control [10]: -5.98%
SMILES: Cn1cc(-n2cnc3c(NCc4nc5cc(Cl)c(Cl)cc5[nH]4)nc(N4CCOCC4)nc32)cn1
